# Assay results: patent US20250163104A1, “MACROCYCLIC IMMUNOMODULATORS” (priority 2021, published 2025)
# Where a SMILES comes first, the peptide text is derived from it. Bridges are numbered along the chain shown (N, C = ends). [ ]: non-standard residue; d: D form. The star is where a group is joined. ξ: configuration not given here. Phe(4-COOH) = N[C@@H](Cc1ccc(C(=O)O)cc1)C(=O)O; Bip = N[C@@H](Cc1ccc(-c2ccccc2)cc1)C(=O)O; Phe(3-Me) = Cc1cccc(C[C@H](N)C(=O)O)c1; hArg = N=C(N)NCCCC[C@H](N)C(=O)O; 4Pal = N[C@@H](Cc1ccncc1)C(=O)O; Aad = N[C@@H](CCCC(=O)O)C(=O)O; Cha = N[C@@H](CC1CCCCC1)C(=O)O; Thr(3ξ) = CC(O)[C@H](N)C(=O)O; Ahp(2) = CCCCC[C@H](N)C(=O)O; Carboxymethyl = O=C(O)C*; Orn = NCCC[C@H](N)C(=O)O; Dab = NCC[C@H](N)C(=O)O; Dap = NC[C@H](N)C(=O)O
# Biological target: T1, human PD-1 / PD-L1-Ig binding on Jurkat cell line over-expressing human PD-1 (Jurkat-PD-1) (Homo sapiens, UniProt Q15116)
# T1 construct: expressed in transfected cells; host or cells: Jurkat
# Test: Jurkat-PD-1 Cell Binding High-Content Screening Assay (CBA)
# Format: cell-based
# Conditions: Jurkat-PD-1 cells, PE-labeled PD-L1-Ig 20 nM final; read-out: Jurkat HPD1_PDL1 IC50
# How it was run: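 Jurkat-hPD-1 cells in DMEM with 10% fetal calf serum receive test compound and are held at 37° C for 2 h. PE-labeled PD-L1-Ig is added at 20 nM final and left for 1 hour. Cells are then fixed and Hoechst-stained, and binding is measured by imaging.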
# T1 sequence (Q15116 25-288): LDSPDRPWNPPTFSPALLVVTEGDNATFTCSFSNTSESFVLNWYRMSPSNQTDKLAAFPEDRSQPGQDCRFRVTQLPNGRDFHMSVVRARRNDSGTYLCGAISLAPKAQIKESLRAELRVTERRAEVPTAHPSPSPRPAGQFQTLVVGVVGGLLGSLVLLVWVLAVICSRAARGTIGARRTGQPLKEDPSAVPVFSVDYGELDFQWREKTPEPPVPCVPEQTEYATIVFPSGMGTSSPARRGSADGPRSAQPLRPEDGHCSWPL
row,SMILES,IC50 [nM]
1,CCC(C)[C@@H]1NC(=O)[C@H](Cc2ccc(-c3ccccc3)cc2)NC(=O)[C@H](C(C)C)NC(=O)[C@H](Cc2cccc(C)c2)NC(=O)[C@H](CC(=O)O)NC(=O)[C@H](Cc2ccc(OCC(=O)O)cc2)NC(=O)[C@H](CN)NC(=O)CSC[C@@H](C(=O)N[C@@H](C)C(N)=O)NC(=O)[C@H](CO)NC(=O)[C@H](C(C)C)NC(=O)[C@H](CC2CCCCC2)NC(=O)[C@H](CCN)NC(=O)[C@@H](CC(C)C)NC(=O)[C@H](CCCN)NC1=O (stereo partly shown) [Compound 2533],43.7
2,CCC(C)[C@@H]1NC(=O)[C@H](Cc2ccc(-c3ccccc3)cc2)NC(=O)[C@H](C(C)C)NC(=O)[C@H](Cc2cccc(C)c2)NC(=O)[C@H](CC(=O)O)NC(=O)[C@H](Cc2ccc(OCC(=O)O)cc2)NC(=O)[C@H](Cc2ccc(OCC(=O)O)cc2)NC(=O)CSC[C@@H](C(=O)N[C@@H](C)C(N)=O)NC(=O)[C@H](CO)NC(=O)[C@H](C(C)C)NC(=O)[C@H](CC2CCCCC2)NC(=O)[C@H](CCN)NC(=O)[C@@H](CC(C)C)NC(=O)[C@H](CCCN)NC1=O (stereo partly shown) [Compound 2534],21.3
3,CCC(C)[C@@H]1NC(=O)[C@H](Cc2ccc(-c3ccccc3)cc2)NC(=O)[C@H](C(C)C)NC(=O)[C@H](Cc2cccc(C)c2)NC(=O)[C@H](CC(=O)O)NC(=O)[C@H](Cc2ccc(OCC(=O)O)cc2)NC(=O)[C@H](Cc2ccncc2)NC(=O)CSC[C@@H](C(=O)N[C@@H](C)C(N)=O)NC(=O)[C@H](CO)NC(=O)[C@H](C(C)C)NC(=O)[C@H](CC2CCCCC2)NC(=O)[C@H](CCN)NC(=O)[C@@H](CC(C)C)NC(=O)[C@H](CCCN)NC1=O (stereo partly shown) [Compound 2535],38
4,CC(C)C[C@H]1NC(=O)[C@H](CCCN)NC(=O)[C@H](C(C)C)NC(=O)[C@H](Cc2ccc(-c3ccccc3)cc2)NC(=O)[C@H](C(C)C)NC(=O)[C@H](Cc2c[nH]c3ccccc23)NC(=O)[C@H](CC(=O)O)NC(=O)[C@H](Cc2ccc(O)cc2)NC(=O)[C@H](CC#N)NC(=O)CSC[C@@H](C(=O)N[C@@H](C)C(N)=O)NC(=O)[C@H](C(C)O)NC(=O)[C@H](C(C)C)NC(=O)[C@H](CC2CCCCC2)NC(=O)[C@H](CCN)NC1=O (stereo partly shown) [Compound 2536],10.9
5,Cc1cccc(C[C@@H]2NC(=O)[C@H](CC(=O)O)NC(=O)[C@H](Cc3ccc(OCC(=O)O)cc3)NC(=O)[C@H](CCCC(=O)O)NC(=O)CSC[C@@H](C(=O)N[C@@H](C)C(N)=O)NC(=O)[C@H](CO)NC(=O)[C@H](C(C)C)NC(=O)[C@H](CC3CCCCC3)NC(=O)[C@H](CCN)NC(=O)[C@@H](CC(C)C)NC(=O)[C@H](CCCN)NC(=O)[C@H](C(C)C)NC(=O)[C@H](Cc3ccc(-c4ccccc4)cc3)NC(=O)[C@H](C(C)C)NC2=O)c1 [Compound 2537] ({CH2CO}-[Aad]Y(Carboxymethyl)D[Phe(3-Me)]V[Bip]V[Orn][dL][Dab][Cha]VSCA-NH2; thioether N-14),18.3
6,CCC(C)[C@@H]1NC(=O)[C@H](Cc2ccc(-c3ccccc3)cc2)NC(=O)[C@H](C(C)C)NC(=O)[C@H](Cc2cccc(C)c2)NC(=O)[C@H](CC(=O)O)NC(=O)[C@H](Cc2ccc(C(=O)O)cc2)NC(=O)[C@H](CCCNC(=N)N)NC(=O)CSC[C@@H](C(=O)N[C@@H](C)C(N)=O)NC(=O)[C@H](C(C)O)NC(=O)[C@H](C(C)C)NC(=O)[C@H](CC2CCCCC2)NC(=O)[C@H](CCN)NC(=O)[C@@H](CC(C)C)NC(=O)[C@H](CCCN)NC1=O (stereo partly shown) [Compound 2538],9.7
7,CC(C)C[C@H]1NC(=O)[C@H](CCCN)NC(=O)[C@H](CN)NC(=O)[C@H](Cc2ccc(-c3ccccc3)cc2)NC(=O)[C@H](C(C)C)NC(=O)[C@H](Cc2c[nH]c3ccccc23)NC(=O)[C@H](CC(=O)O)NC(=O)[C@H](Cc2ccc(C(=O)O)cc2)NC(=O)[C@H](Cc2ccc(OCC(=O)O)cc2)NC(=O)CSC[C@@H](C(=O)N[C@@H](C)C(N)=O)NC(=O)[C@H](CO)NC(=O)[C@H](C(C)C)NC(=O)[C@H](CC2CCCCC2)NC(=O)[C@H](CCN)NC1=O [Compound 2540] ({CH2CO}-Y(Carboxymethyl)[Phe(4-COOH)]DWV[Bip][Dap][Orn][dL][Dab][Cha]VSCA-NH2; thioether N-14),16.1
8,CCCCC[C@@H]1NC(=O)[C@H](Cc2ccc(-c3ccccc3)cc2)NC(=O)[C@H](C(C)C)NC(=O)[C@H](Cc2c[nH]c3ccccc23)NC(=O)[C@H](CC(=O)O)NC(=O)[C@H](Cc2ccc(C(=O)O)cc2)NC(=O)[C@H](Cc2ccncc2)NC(=O)CSC[C@@H](C(=O)N[C@@H](CC(N)=O)C(N)=O)NC(=O)[C@H](CO)NC(=O)[C@H](C(C)C)NC(=O)[C@H](CC2CCCCC2)NC(=O)[C@H](CCN)NC(=O)[C@@H](C)NC(=O)[C@H](CCCN)NC1=O [Compound 2541] ({CH2CO}-[4Pal][Phe(4-COOH)]DWV[Bip][Ahp(2)][Orn][dA][Dab][Cha]VSCN-NH2; thioether N-14),58.4
9,CC(C)[C@@H]1NC(=O)[C@H](Cc2c[nH]c3ccccc23)NC(=O)[C@H](CC(=O)O)NC(=O)[C@H](Cc2ccncc2)NC(=O)[C@H](CN)NC(=O)CSC[C@@H](C(=O)NCC(N)=O)NC(=O)[C@H](C(C)O)NC(=O)[C@H](C(C)C)NC(=O)[C@H](CC2CCCCC2)NC(=O)[C@H](CCN)NC(=O)[C@@H](C)NC(=O)[C@H](CCCN)NC(=O)[C@H](CCN)NC(=O)[C@H](Cc2ccc(-c3ccccc3)cc2)NC1=O (stereo partly shown) [Compound 2543] ({CH2CO}-[Dap][4Pal]DWV[Bip][Dab][Orn][dA][Dab][Cha]V[Thr(3ξ)]CG-NH2; thioether N-14),236
10,CC(C)[C@@H]1NC(=O)[C@H](Cc2c[nH]c3ccccc23)NC(=O)[C@H](CC(=O)O)NC(=O)[C@H](Cc2ccc(C(=O)O)cc2)NC(=O)[C@H](Cc2ccncc2)NC(=O)CSC[C@@H](C(=O)NCC(N)=O)NC(=O)[C@H](CO)NC(=O)[C@H](C(C)C)NC(=O)[C@H](CC2CCCCC2)NC(=O)[C@H](CCN)NC(=O)[C@@H](C)NC(=O)[C@H](CCCN)NC(=O)[C@H](CCN)NC(=O)[C@H](Cc2ccc(-c3ccccc3)cc2)NC1=O [Compound 2544] ({CH2CO}-[4Pal][Phe(4-COOH)]DWV[Bip][Dab][Orn][dA][Dab][Cha]VSCG-NH2; thioether N-14),80.6

# Second part, the compound after the results:
row,IC50 [nM],SMILES
1,8.5,CC(C)C[C@H]1NC(=O)[C@H](CCCN)NC(=O)[C@H](C(C)C)NC(=O)[C@H](Cc2ccc(-c3ccccc3)cc2)NC(=O)[C@H](C(C)C)NC(=O)[C@H](Cc2c[nH]c3ccccc23)NC(=O)[C@H](CC(=O)O)NC(=O)[C@H](Cc2ccc(OCC(=O)O)cc2)NC(=O)[C@H](CCCNC(=N)N)NC(=O)CSC[C@@H](C(=O)N[C@@H](C)C(N)=O)NC(=O)[C@H](C(C)O)NC(=O)[C@H](C(C)C)NC(=O)[C@H](CC2CCCCC2)NC(=O)[C@H](CCN)NC1=O (stereo partly drawn) [Compound 2530] ({CH2CO}-RY(Carboxymethyl)DWV[Bip]V[Orn][dL][Dab][Cha]V[Thr(3ξ)]CA-NH2; thioether N-14)
2,103,CC(C)C[C@H]1NC(=O)[C@H](CCCN)NC(=O)[C@H](CN)NC(=O)[C@H](Cc2ccc(-c3ccccc3)cc2)NC(=O)[C@H](C(C)C)NC(=O)[C@H](Cc2c[nH]c3ccccc23)NC(=O)[C@H](CC(=O)O)NC(=O)[C@H](Cc2ccc(OCC(=O)O)cc2)NC(=O)[C@H](CC#N)NC(=O)CSC[C@@H](C(=O)N[C@@H](C)C(N)=O)NC(=O)[C@H](C(C)O)NC(=O)[C@H](C(C)C)NC(=O)[C@H](CC2CCCCC2)NC(=O)[C@H](CC(N)=O)NC1=O (stereo partly shown) [Compound 2539]
3,20.5,CC(C)C[C@H]1NC(=O)[C@H](CCCN)NC(=O)[C@H](CCCCN)NC(=O)[C@H](Cc2ccc(-c3ccccc3)cc2)NC(=O)[C@H](C(C)C)NC(=O)[C@H](Cc2c[nH]c3ccccc23)NC(=O)[C@H](CC(=O)O)NC(=O)[C@H](Cc2ccncc2)NC(=O)[C@H](CN)NC(=O)CSC[C@@H](C(=O)N[C@@H](CC(N)=O)C(N)=O)NC(=O)[C@H](C(C)O)NC(=O)[C@H](C(C)C)NC(=O)[C@H](CC2CCCCC2)NC(=O)[C@H](CCN)NC1=O (stereo partly drawn) [Compound 2542] ({CH2CO}-[Dap][4Pal]DWV[Bip]K[Orn][dL][Dab][Cha]V[Thr(3ξ)]CN-NH2; thioether N-14)
4,7.5,CC(C)C[C@H]1NC(=O)[C@H](CCCN)NC(=O)[C@H](C(C)C)NC(=O)[C@H](Cc2ccc(-c3ccccc3)cc2)NC(=O)[C@H](C(C)C)NC(=O)[C@H](Cc2c[nH]c3ccccc23)NC(=O)[C@H](CC(=O)O)NC(=O)[C@H](Cc2ccc(OCC(=O)O)cc2)NC(=O)[C@H](CCCCNC(=N)N)NC(=O)CSC[C@@H](C(=O)N[C@@H](CC(N)=O)C(N)=O)NC(=O)[C@H](C(C)O)NC(=O)[C@H](C(C)C)NC(=O)[C@H](CC2CCCCC2)NC(=O)[C@H](CCN)NC1=O (stereo partly drawn) [Compound 2546] ({CH2CO}-[hArg]Y(Carboxymethyl)DWV[Bip]V[Orn][dL][Dab][Cha]V[Thr(3ξ)]CN-NH2; thioether N-14)
5,5.9,CC(C)C[C@H]1NC(=O)[C@H](CCCN)NC(=O)[C@H](C(C)C)NC(=O)[C@H](Cc2ccc(-c3ccccc3)cc2)NC(=O)[C@H](C(C)C)NC(=O)[C@H](Cc2c[nH]c3ccccc23)NC(=O)[C@H](CC(=O)O)NC(=O)[C@H](Cc2ccc(OCC(=O)O)cc2)NC(=O)[C@H](Cc2cnc[nH]2)NC(=O)CSC[C@@H](C(=O)N[C@@H](CC(N)=O)C(N)=O)NC(=O)[C@H](C(C)O)NC(=O)[C@H](C(C)C)NC(=O)[C@H](CC2CCCCC2)NC(=O)[C@H](CCN)NC1=O (stereo partly drawn) [Compound 2548] ({CH2CO}-HY(Carboxymethyl)DWV[Bip]V[Orn][dL][Dab][Cha]V[Thr(3ξ)]CN-NH2; thioether N-14)
6,12.5,CC(C)C[C@H]1NC(=O)[C@H](CCCN)NC(=O)[C@H](C(C)C)NC(=O)[C@H](Cc2ccc(-c3ccccc3)cc2)NC(=O)[C@H](C(C)C)NC(=O)[C@H](Cc2c[nH]c3ccccc23)NC(=O)[C@H](CC(=O)O)NC(=O)[C@H](Cc2ccc(O)cc2)NC(=O)[C@H](C(C)O)NC(=O)CSC[C@@H](C(=O)N[C@@H](CC(N)=O)C(N)=O)NC(=O)[C@H](C(C)O)NC(=O)[C@H](C(C)C)NC(=O)[C@H](CC2CCCCC2)NC(=O)[C@H](CCN)NC1=O (stereo partly drawn) [Compound 2549] ({CH2CO}-[Thr(3ξ)]YDWV[Bip]V[Orn][dL][Dab][Cha]V[Thr(3ξ)]CN-NH2; thioether N-14)
